Values quoted from earlier work, collected in patent US20260191871A1, “USE OF ANTIVIRAL AGENTS, COMPOSITION OF MATTER, COMBINATION PREPARATIONS/AGENTS TO TREAT CHRONIC DISEASES ASSOCIATED WITH EPSTEIN-BARR VIRUS AND OTHER HUMAN HERPES VIRUSES” (EPIPHANY BIOSCIENCES, priority 2022, published 2026).

How the values were obtained:
[1] = system: human varicella zoster virus (VZV)
[2] = system: human herpesvirus-6 (HHV-6)
[3] = compared with the other polymorphic forms (O'Neill et al. '456)
[4] = human, multiple dosing, total daily doses of up to 6.0 g
zoster = conditions: suspension at 250, 500 and 750 mg twice daily for 7 days, zoster patients, acyclovir as control

For `Nc1nc2c(ncn2C[C@H](CO)CCO)c(=O)[nH]1` [Formula H2G], the “activity against human varicella zoster virus (VZV)” value [1] is given as “potent activity”, the “activity against Epstein-Barr virus (EBV)” value (Epstein-Barr virus (EBV)) is given as “potent activity” and the “activity against human herpesvirus-6 (HHV-6)” value [2] is given as “potent activity”. For the same compound, the “activity against HSV-1” value (HSV-1) was “potent activity” and the “activity against HSV-2” value (HSV-2) was “potent activity”.
In the case of `CCCCCCCCCCCCCCCCCC(=O)OC[C@H](CCOC(=O)[C@@H](N)C(C)C)Cn1cnc2c(=O)[nH]c(N)nc21` [Polymorph A], the “thermodynamic stability among polymorphs of valomaciclovir stearate” value [3] is listed as “thermodynamically the most stable polymorph”.
For `CCCCCCCCCCCCCCCCCC(=O)OC[C@H](CCOC(=O)[C@@H](N)C(C)C)Cn1cnc2c(=O)nc(N)[nH]c21` [valomaciclovir stearate, [(2R)-4-[(2S)-2-amino-3-methylbutanoyl]oxy-2-[(2-amino-6-oxo-3H-purin-9-yl)methyl]butyl]octadecanoate], the safety and tolerability [4] is given as “safe and well tolerated”, the zoster lesion healing (zoster) is given as “proof-of-concept for zoster lesion healing” and the “replication of EBV” value (EBV) is given as “suppresses replication of EBV”. For the same compound, the “impact on CMV” value (CMV) was “does not impact CMV”.
